Reference: patent US8481544B2, “Antibacterial compositions” (Biota Europe Limited, priority 2006, dated 2013)
Converted amounts (≈) assume the structure as drawn.

Test system: Enterococcus faecalis ATCC 29212
Experiment: MIC against Enterococcus faecalis ATCC 29212
Format: cell-based
Conditions: ATCC29212; Enterococcus faecalis ATCC 29212; read-out: MICs against Enterococcus faecalis, Activity
Procedure: Institute. Methods for Dilution Antimicrobial Susceptibility Tests for Bacteria That Grow Aerobically; Approved Standard—Seventh Edition. Document M7-A7. CLSI, Wayne, Pa., 2006; Clinical Laboratories and Standards Institute. Methods for Antimicrobial Susceptibility Testing of Anaerobic Bacteria; Approved Standard—Sixth Edition. Document M11-A6. CLSI, Wayne, Pa., 2004).
Compounds of this invention were tested for antimicrobial activity by susceptibility testing in liquid or on solid media. MICs for compounds against each strain were determined by the broth microdilution or agar dilution method according to the guidelines of the Clinical Laboratories and Standards Institute, formerly the National Committee for Clinical Laboratory Standards (Clinical Laboratories and Standards Institute. Methods for Dilution Antimicrobial Susceptibility Tests for Bacteria That Grow Aerobically; Approved Standard—Seventh Edition. Document M7-A7. CLSI, Wayne, Pa., 2006; Clinical Laboratories and Standards Institute. Methods for Antimicrobial Susceptibility Testing of Anaerobic Bacteria; Approved Standard—Sixth Edition. Document M11-A6. CLSI, Wayne, Pa., 2004).

`CCNC(=O)Nc1nc2cc(-c3cc(C)n(C)c(=O)c3)cc(-c3cccnc3)c2s1` [Example 50, 1-[5-(1,6-Dimethyl-2-oxo-1,2-dihydro-pyridin-4-yl)-7-pyridin-3-yl-benzothiazol-2-yl]-3-ethyl-urea] and `CCNC(=O)Nc1nc2cc(-c3cccnc3)cc(-c3cccn3C)c2s1` [Example 11, 1-Ethyl-3-[7-(1-methyl-1H-pyrrol-2-yl)-5-pyridin-3-yl-benzothiazol-2-yl]-urea] fall in the same range of MIC: 0.25 to 1 µg/mL (≈ 0.596 to 2.38 µM) for the first, 0.25 to 1 µg/mL (≈ 0.662 to 2.65 µM) for the second.

`CCNC(=O)Nc1nc2cc(-c3ccc(C#N)nc3)cc(-c3ccccn3)c2s1` [Example 33, 1-[5-(6-Cyano-pyridin-3-yl)-7-pyridin-2-yl-benzothiazol-2-yl]-3-ethyl-urea] and `CCNC(=O)Nc1nc2cc(-c3ccc(CO)nc3)cc(-c3ccccn3)c2s1` [Example 34, 1-Ethyl-3-[5-(6-hydroxymethyl-pyridin-3-yl)-7-pyridin-2-yl-benzothiazol-2-yl]-urea] cannot be ordered by MIC: under 0.25 µg/mL for the first, under 0.25 µg/mL for the second.

`CCNC(=O)Nc1nc2cc(-c3ccc(CC(=O)NC)nc3)cc(-c3ccccn3)c2s1` [Example 70, 2-{5-[2-(3-Ethyl-ureido)-7-pyridin-2-yl-benzothiazol-5-yl]-pyridin-2-yl}-N-methyl-acetamide] and `CCNC(=O)Nc1nc2cc(-c3ccc(CC(=O)OC)nc3)cc(-c3ccccn3)c2s1` [Example 69, {5-[2-(3-Ethyl-ureido)-7-pyridin-2-yl-benzothiazol-5-yl]-pyridin-2-yl}-acetic acid methyl ester] cannot be ordered by MIC: under 0.25 µg/mL for the first, under 0.25 µg/mL for the second.

`CCNC(=O)Nc1nc2cc(-c3ccc(CN4CCOCC4)cc3)cc(-c3ccc(CN4CCOCC4)cc3)c2s1` [Example 146, 1-[5,7-Bis-(4-morpholin-4-ylmethyl-phenyl)-benzothiazol-2-yl]-3-ethyl-urea] and `CCNC(=O)Nc1nc2cc(-c3cccnc3)cc(-c3cnn(CCN4CCOCC4)c3)c2s1` [Example 81, 1-Ethyl-3-{7-[1-(2-morpholin-4-yl-ethyl)-1H-pyrazol-4-yl]-5-pyridin-3-yl-benzothiazol-2-yl}-urea] fall in the same range of MIC: 2 to 16 µg/mL (≈ 3.5 to 28 µM) for the first, 2 to 16 µg/mL (≈ 4.19 to 33.5 µM) for the second.

First: CCNC(=O)Nc1nc2cc(-c3cncc(N)n3)cc(-c3cccnc3)c2s1 [Example 45, 1-[5-(6-Amino-pyrazin-2-yl)-7-pyridin-3-yl-benzothiazol-2-yl]-3-ethyl-urea]
Second: CCNC(=O)Nc1nc2cc(-c3cccnc3)cc(-c3cncc(N)n3)c2s1 [Example 123, 1-[7-(6-Amino-pyrazin-2-yl)-5-pyridin-3-yl-benzothiazol-2-yl]-3-ethyl-urea]
The MIC of the first is higher: 0.25 to 1 µg/mL (≈ 0.639 to 2.55 µM) for the first, under 0.25 µg/mL for the second.

First: CCNC(=O)Nc1nc2cc(-c3cccnc3)cc(-c3ccc(C(F)(F)F)cn3)c2s1 [Example 129, 1-Ethyl-3-[5-pyridin-3-yl-7-(5-trifluoromethyl-pyridin-2-yl)-benzothiazol-2-yl]-urea]
Second: CCNC(=O)Nc1nc2cc(-c3cccnc3)cc(-c3ccc(Cl)cn3)c2s1 [Example 130, 1-[7-(5-Chloro-pyridin-2-yl)-5-pyridin-3-yl-benzothiazol-2-yl]-3-ethyl-urea]
The MIC of the first is higher: 0.25 to 1 µg/mL (≈ 0.564 to 2.26 µM) for the first, under 0.25 µg/mL for the second.

Compared with `CCNC(=O)Nc1nc2cc(-c3cccnc3)cc(-n3cccn3)c2s1` [Example 140, 1-Ethyl-3-(7-pyrazol-1-yl-5-pyridin-3-yl-benzothiazol-2-yl)-urea], `CCNC(=O)Nc1nc2cc(-n3cccn3)cc(-c3cccnc3)c2s1` [Example 12, 1-Ethyl-3-(5-pyrazol-1-yl-7-pyridin-3-yl-benzothiazol-2-yl)-urea] is higher in MIC: 0.25 to 1 µg/mL (≈ 0.686 to 2.74 µM) for the first, 2 to 16 µg/mL (≈ 5.49 to 43.9 µM) for the second.

`CCNC(=O)Nc1nc2cc(-c3cccnc3)cc(-c3cc(N)ccn3)c2s1` [Example 100, 1-[7-(4-Amino-pyridin-2-yl)-5-pyridin-3-yl-benzothiazol-2-yl]-3-ethyl-urea] and `CCNC(=O)Nc1nc2cc(-c3cccnc3)cc(-c3cc(C#N)ccn3)c2s1` [Example 119, 1-[7-(4-Cyano-pyridin-2-yl)-5-pyridin-3-yl-benzothiazol-2-yl]-3-ethyl-urea] cannot be ordered by MIC: under 0.25 µg/mL for the first, under 0.25 µg/mL for the second.

First: CCNC(=O)Nc1nc2cc(-c3cnc(N)nc3)cc(-c3cccnc3)c2s1 [Example 14, 1-[5-(2-Amino-pyrimidin-5-yl)-7-pyridin-3-yl-benzothiazol-2-yl]-3-ethyl-urea]
Second: CCNC(=O)Nc1nc2cc(-c3cccnc3)cc(-c3cnc(N)cn3)c2s1 [Example 131, 1-[7-(5-Amino-pyrazin-2-yl)-5-pyridin-3-yl-benzothiazol-2-yl]-3-ethyl-urea]
The MIC of the first is higher: 0.25 to 1 µg/mL (≈ 0.639 to 2.55 µM) for the first, under 0.25 µg/mL for the second.

Compared with `CCNC(=O)Nc1nc2cc(-c3ccc(NCCN(C)C)nc3)cc(-c3ccccn3)c2s1` [Example 61, 1-{5-[6-(2-Dimethylamino-ethylamino)-pyridin-3-yl]-7-pyridin-2-yl-benzothiazol-2-yl}-3-ethyl-urea], `CCNC(=O)Nc1nc2cc(-c3ccc(NC(C)=O)nc3)cc(-c3ccccn3)c2s1` [Example 133, N-{5-[2-(3-Ethyl-ureido)-7-pyridin-2-yl-benzothiazol-5-yl]-pyridin-2-yl}-acetamide] is lower in MIC: 0.25 to 1 µg/mL (≈ 0.542 to 2.17 µM) for the first, under 0.25 µg/mL for the second.

`CCNC(=O)Nc1nc2cc(-c3cccnc3)cc(-c3cccnn3)c2s1` [Example 160, 1-Ethyl-3-(7-pyridazin-3-yl-5-pyridin-3-yl-benzothiazol-2-yl)-urea] and `CCNC(=O)Nc1nc2cc(-c3ccccn3)cc(-c3cccnc3)c2s1` [Example 155, 1-Ethyl-3-(5-pyridin-2-yl-7-pyridin-3-yl-benzothiazol-2-yl)-urea] fall in the same range of MIC: 2 to 16 µg/mL (≈ 5.31 to 42.5 µM) for the first, 2 to 16 µg/mL (≈ 5.33 to 42.6 µM) for the second.

First: CCNC(=O)Nc1nc2cc(-c3cnccc3N)cc(-c3cccnc3)c2s1 [Example 44, 1-[5-(4-Amino-pyridin-3-yl)-7-pyridin-3-yl-benzothiazol-2-yl]-3-ethyl-urea]
Second: CCNC(=O)Nc1nc2cc(-c3ccncc3)cc(-c3cccnc3)c2s1 [Example 30, 1-Ethyl-3-(5-pyridin-4-yl-7-pyridin-3-yl-benzothiazol-2-yl)-urea]
The MIC of the first is higher: 2 to 16 µg/mL (≈ 5.12 to 41 µM) for the first, 0.25 to 1 µg/mL (≈ 0.666 to 2.66 µM) for the second.

First: CCNC(=O)Nc1nc2cc(-n3ccccc3=O)cc(-c3cccnc3)c2s1 [Example 141, 1-Ethyl-3-[5-(2-oxo-2H-pyridin-1-yl)-7-pyridin-3-yl-benzothiazol-2-yl]-urea]
Second: CCNC(=O)Nc1nc2cc(-c3cccnc3)cc(-c3cccc(CO)n3)c2s1 [Example 104, 1-Ethyl-3-[7-(6-hydroxymethyl-pyridin-2-yl)-5-pyridin-3-yl-benzothiazol-2-yl]-urea]
The MIC of the first is higher: 2 to 16 µg/mL (≈ 5.11 to 40.9 µM) for the first, under 0.25 µg/mL for the second.

`CCNC(=O)Nc1nc2cc(-c3cccnc3)cc(-c3ncccc3C#N)c2s1` [Example 95, 1-[7-(3-Cyano-pyridin-2-yl)-5-pyridin-3-yl-benzothiazol-2-yl]-3-ethyl-urea] and `CCNC(=O)Nc1nc2cc(-c3ccc(C#N)nc3)cc(-c3cccnc3)c2s1` [Example 27, 1-[5-(6-Cyano-pyridin-3-yl)-7-pyridin-3-yl-benzothiazol-2-yl]-3-ethyl-urea] cannot be ordered by MIC: under 0.25 µg/mL for the first, under 0.25 µg/mL for the second.

First: CCNC(=O)Nc1nc2cc(-c3ccn(C)c(=O)c3)cc(-c3ccccn3)c2s1 [Example 51, 1-Ethyl-3-[5-(1-methyl-2-oxo-1,2-dihydro-pyridin-4-yl)-7-pyridin-2-yl-benzothiazol-2-yl]-urea]
Second: CCNC(=O)Nc1nc2cc(-c3ccn(CCN(C)C)c(=O)c3)cc(-c3ccccn3)c2s1 [Example 72, 1-{5-[1-(2-Dimethylamino-ethyl)-2-oxo-1,2-dihydro-pyridin-4-yl]-7-pyridin-2-yl-benzothiazol-2-yl}-3-ethyl-urea]
The MIC of the first is lower: under 0.25 µg/mL for the first, 0.25 to 1 µg/mL (≈ 0.54 to 2.16 µM) for the second.

Compared with `CCNC(=O)Nc1nc2cc(-c3cnn(C)c3)cc(Br)c2s1` [Example 6, 1-[7-Bromo-5-(1-methyl-1H-pyrazol-4-yl)-benzothiazol-2-yl]-3-ethyl-urea], `CCNC(=O)Nc1nc2cc(Br)cc(-c3cnn(C)c3)c2s1` [Example 5, 1-[5-Bromo-7-(1-methyl-1H-pyrazol-4-yl)-benzothiazol-2-yl]-3-ethyl-urea] is higher in MIC: 0.25 to 1 µg/mL (≈ 0.657 to 2.63 µM) for the first, 2 to 16 µg/mL (≈ 5.26 to 42.1 µM) for the second.

`CCNC(=O)Nc1nc2cc(-c3cncc(C)c3)cc(-c3ccccn3)c2s1` [Example 36, 1-Ethyl-3-[5-(5-methyl-pyridin-3-yl)-7-pyridin-2-yl-benzothiazol-2-yl]-urea] and `CCNC(=O)Nc1nc2cc(-n3ccnc3)cc(-c3ccccn3)c2s1` [Example 142, 1-Ethyl-3-(5-imidazol-1-yl-7-pyridin-2-yl-benzothiazol-2-yl)-urea] cannot be ordered by MIC: under 0.25 µg/mL for the first, under 0.25 µg/mL for the second.

First: CCNC(=O)Nc1nc2cc(-c3cccnc3)cc(-c3cncn3C)c2s1 [Example 164, 1-Ethyl-3-[7-(3-methyl-3H-imidazol-4-yl)-5-pyridin-3-yl-benzothiazol-2-yl]-urea]
Second: CCNC(=O)Nc1nc2cc(-c3cccnc3)cc(-c3nccc(OC)n3)c2s1 [Example 124, 1-Ethyl-3-[7-(4-methoxy-pyrimidin-2-yl)-5-pyridin-3-yl-benzothiazol-2-yl]-urea]
The MIC of the first is higher: 2 to 16 µg/mL (≈ 5.28 to 42.3 µM) for the first, under 0.25 µg/mL for the second.

Compared with `CCNC(=O)Nc1nc2cc(-c3cccnc3)cc(-c3ncnc4[nH]ccc34)c2s1` [Example 116, 1-Ethyl-3-[5-pyridin-3-yl-7-(7H-pyrrolo[2,3-d]pyrimidin-4-yl)-benzothiazol-2-yl]-urea], `CCNC(=O)Nc1nc2cc(-c3cccnc3)cc(C3CC3)c2s1` [Example 79, 1-(7-Cyclopropyl-5-pyridin-3-yl-benzothiazol-2-yl)-3-ethyl-urea] is higher in MIC: under 0.25 µg/mL for the first, 0.25 to 1 µg/mL (≈ 0.739 to 2.95 µM) for the second.

Compared with `CCNC(=O)Nc1nc2cc(-c3cccnc3)cc(-c3cccc(N4CCOCC4)n3)c2s1` [Example 166, 1-Ethyl-3-[7-(6-morpholin-4-yl-pyridin-2-yl)-5-pyridin-3-yl-benzothiazol-2-yl]-urea], `CCNC(=O)Nc1nc2cc(-c3ccc(CN4CCOCC4)nc3)cc(-c3ccccn3)c2s1` [Example 59, 1-Ethyl-3-[5-(6-morpholin-4-ylmethyl-pyridin-3-yl)-7-pyridin-2-yl-benzothiazol-2-yl]-urea] is lower in MIC: 0.25 to 1 µg/mL (≈ 0.543 to 2.17 µM) for the first, under 0.25 µg/mL for the second.
